Tested on: live leukemic cells of AML patient samples (bone marrow or peripheral blood)
Assay: Ex-vivo effect on AML patient samples, depletion of live leukemic cells by flow cytometry
Format: cell-based, human
Conditions: plates incubated for 48 hours
Method: Patient samples were obtained from a non-interventional and prospective study. The study included samples from adult patients over 18 years of age who were diagnosed with Acute Myeloid Leukemia (AML).
In one embodiment, the method of data acquisition was performed as follows: on day 1 bone marrow (BM) or peripheral blood (PB) patient sample was received. A small part was separated from the rest of the sample for validation, while the majority of the sample was diluted with culture media and plated into 96-well plates previously prepared with the desired compounds and compound combinations, e.g., a compound or compound combination described herein. The number of live leukemic cells seeded in each well was fixed between 8000 and 32000, depending on the percentage of leukemic cells for each sample. […] Antibodies were added to identify leukemic cells using a gating strategy based on FSC/SSC and expression or lack of expression of different surface markers. The monoclonal antibodies selection was performed to optimize the identification of leukemic cell in each sample.
In one embodiment, non-limiting examples of biomarkers such as the biomarkers CD34, CD45, CD117, and HLADR known as “backbone markers” for AML (van Dongen, J. J. and A. Orfao, EuroFlow: Resetting leukemia and lymphoma immunophenotyping. Basis for companion diagnostics and personalized medicine, Leukemia, 2012, 26, 1899-907) were included in the combination.
In one embodiment, antibody combinations such as CD117/CD45, CD34/CD45, and HLADR/CD45 were used. Live leukemic cells were identified by their light scatter properties (FSC^int/hi/SSC^int) in the absence of Annexin-V-FITC staining. FSC/SSC selection was performed to exclude debris. The average percentage of cell viability upon receipt of the sample was 80% and samples were only processed if the viability was greater than 50%.
In one embodiment, sample validation was performed as follows: BM and PB samples were extracted under sterile conditions and received in the laboratory within 24 hours of extraction. Initial analysis evaluated the number of pathological cells and their viability. Different volumes of sample (1 μL, 3 μL, 5 μL and 7 μL) were aliquoted in duplicate into a 96-well plate. To lyse red blood cells, 180 μL of ammonium chloride lysis solution was added to each well (2 g KHCO3, 16.58 g NH4Cl, 0.074 g Na2EDTA.2H2O, H2O to 1 L). Following a 10 min incubation period at 4° C., plate was centrifuged for 5 min at 1200 rpm and the supernatant removed. The lysis step was performed twice. To analyze, 20 μL of a combination of Annexin V-FITC (Immunostep, Salamanca, Spain), binding buffer (BB, 2.4 g HEPES, 8.19 g NaCl, 0.37 g Cl2Ca, H2O to 1 L), and the following monoclonal antibodies (mAb) were added to each well: CD117 (clone 104D2)-PE (Becton Dickinson, San Jose, Calif., US), CD34 (clone 581)-PerCP (BioLegend, San Diego, Calif., US), HLADR (clone L243)-PB (BioLegend) and CD45 (HI30)-PO (Life Technologies, Carlsbad, Calif., US) (van Dongen, J. J., et al., EuroFlow antibody panels for standardized n-dimensional flow cytometric immunophenotyping of normal, reactive and malignant leukocytes, Leukemia, 2012, 26, 1908-75). After 15 min of incubation at room temperature in the dark, a wash step was performed using binding buffer solution. The pellet was resuspended in 30 μL BB for analysis in Vivia's ExviTech© platform. Cell count and viability upon arrival were computed and the optimal volume of sample to use per well was determined.
In one embodiment, the assay was performed according to following method: the whole sample was diluted with RPMI 1640, supplemented with 20% (v/v) FBS (Thermo Scientific, Waltham, Mass., US), 2% HEPES, 1% antibiotic (Zell Shield, Labclinics, Barcelona, Spain) and 1% L-glutamine 200 mM (Lonza, Hopkinton, Mass., US) to a final volume of 60 μL per well. […]

| EC50 (Homo sapiens, 48 h) | EC50 | Compound | Emax (Homo sapiens, 48 h) | Emax (Homo sapiens) | Emax (%) |
| --- | --- | --- | --- | --- | --- |
|  | 1 to 10 µM | COC(=O)COP(=O)(N[C@@H](CC(C)C)C(=O)OC)OC[C@H]1S[C@@H](n2ccc(N)nc2=O)[C@@H](O)[C@@H]1O (single isomer, unassigned) [drawing 55] |  |  |  |
| 1 to 10 µM |  | COC(=O)COP(=O)(N[C@@H](CC(C)C)C(=O)OC)OC[C@H]1S[C@@H](n2ccc(N)nc2=O)[C@@H](O)[C@@H]1O (single isomer, unassigned) [drawing 54] | 0 to 10% |  |  |
| ≥ 20 µM |  | CC(C)(C)SSCCOP(=O)(NCc1ccccc1)OC[C@H]1S[C@@H](n2ccc(N)nc2=O)[C@@H](O)[C@@H]1O (single isomer, unassigned) [drawing 57] | 10 to 20% |  |  |

Continued, compound first:

| Compound | EC50 (Homo sapiens, 48 h) | EC50 | Emax (Homo sapiens, 48 h) | Emax (Homo sapiens) | Emax (%) |
| --- | --- | --- | --- | --- | --- |
| CCOC(=O)COP(=O)(N[C@@H](CC(C)C)C(=O)OCC)OC[C@H]1S[C@@H](n2ccc(N)nc2=O)[C@@H](O)[C@@H]1O (single isomer, unassigned) [drawing 51] | 10 to 20 µM |  | 0 to 10% |  |  |
| CC(C)OC(=O)[C@H](C)NP(=O)(OC[C@H]1S[C@@H](n2ccc(N)nc2=O)[C@@H](O)[C@@H]1O)Oc1ccccc1 (single isomer, unassigned) [drawing 47] | ≥ 20 µM |  |  | 0 to 10% |  |
| CC(C)OC(=O)[C@H](C)NP(=O)(OC[C@H]1S[C@@H](n2ccc(N)nc2=O)[C@@H](O)[C@@H]1O)Oc1ccccc1 (single isomer, unassigned) [drawing 48] |  | 10 to 20 µM |  |  | A (A=0-10%) |
| CCOC(=O)COP(=O)(N[C@@H](CC(C)C)C(=O)OCC)OC[C@H]1S[C@@H](n2ccc(N)nc2=O)[C@@H](O)[C@@H]1O (single isomer, unassigned) [drawing 50] |  | 10 to 20 µM |  |  |  |
| Nc1ccn([C@@H]2S[C@H](COP(=O)(O)NCc3ccccc3)[C@@H](O)[C@@H]2O)c(=O)n1 [drawing 49] | 1 to 10 µM |  | 10 to 20% |  |  |
